Data: the kinase profiling compilation of Christmann-Franck et al. (2016)

What was measured:
[1] = molecular target: CLK2 (human) (UniProt P49760)
[2] = molecular target: EPHB1 (human) (UniProt P54762)
[3] = molecular target: PRKCQ (human) (UniProt Q04759)
[4] = molecular target: ACVR1B (human) (UniProt P36896)
[5] = molecular target: CAMKK2 (human) (UniProt Q96RR4)
[6] = molecular target: RPS6KA3 KD1 KD2 (human) (UniProt P51812)
[7] = molecular target: MAP4K5 (human) (UniProt Q9Y4K4)
[8] = molecular target: FRK (human) (UniProt P42685)
[9] = molecular target: ULK3 (human) (UniProt Q6PHR2)
[10] = molecular target: CSK (human) (UniProt P41240)
[11] = molecular target: TNK2 (human) (UniProt Q07912)
[12] = molecular target: PTK2B (human) (UniProt Q14289)
[13] = molecular target: HCK (human) (UniProt P08631)
[14] = molecular target: SIK3 (human) (UniProt Q9Y2K2)
[15] = molecular target: TBK1 (human) (UniProt Q9UHD2)
[16] = molecular target: MERTK (human) (UniProt Q12866)
[17] = molecular target: SYK (human) (UniProt P43405)
[18] = molecular target: MAP3K3 (human) (UniProt Q99759)
[19] = molecular target: MAP3K4 (human) (UniProt Q9Y6R4)
[20] = molecular target: SMG1 (human) (UniProt Q96Q15)
[21] = molecular target: NLK (human) (UniProt Q9UBE8)
[22] = molecular target: CAMK2G (human) (UniProt Q13555)
[23] = molecular target: BTK (human) (UniProt Q06187)
[24] = molecular target: TAOK1 (human) (UniProt Q7L7X3)
[25] = molecular target: MAP4K2 (human) (UniProt Q12851)
[26] = molecular target: PRKAA1 (human) (UniProt Q13131)
[27] = molecular target: ABL2 (human) (UniProt P42684)
[28] = molecular target: TEC (human) (UniProt P42680)
[29] = molecular target: MAP3K11 (human) (UniProt Q16584)
[30] = molecular target: EIF2AK1 (human) (UniProt Q9BQI3)
[31] = molecular target: BMP2K (human) (UniProt Q9NSY1)
[32] = molecular target: MAP3K1 (human) (UniProt Q13233)

EIF2AK1 (human), sequence (Q9BQI3 whole entry, looked up): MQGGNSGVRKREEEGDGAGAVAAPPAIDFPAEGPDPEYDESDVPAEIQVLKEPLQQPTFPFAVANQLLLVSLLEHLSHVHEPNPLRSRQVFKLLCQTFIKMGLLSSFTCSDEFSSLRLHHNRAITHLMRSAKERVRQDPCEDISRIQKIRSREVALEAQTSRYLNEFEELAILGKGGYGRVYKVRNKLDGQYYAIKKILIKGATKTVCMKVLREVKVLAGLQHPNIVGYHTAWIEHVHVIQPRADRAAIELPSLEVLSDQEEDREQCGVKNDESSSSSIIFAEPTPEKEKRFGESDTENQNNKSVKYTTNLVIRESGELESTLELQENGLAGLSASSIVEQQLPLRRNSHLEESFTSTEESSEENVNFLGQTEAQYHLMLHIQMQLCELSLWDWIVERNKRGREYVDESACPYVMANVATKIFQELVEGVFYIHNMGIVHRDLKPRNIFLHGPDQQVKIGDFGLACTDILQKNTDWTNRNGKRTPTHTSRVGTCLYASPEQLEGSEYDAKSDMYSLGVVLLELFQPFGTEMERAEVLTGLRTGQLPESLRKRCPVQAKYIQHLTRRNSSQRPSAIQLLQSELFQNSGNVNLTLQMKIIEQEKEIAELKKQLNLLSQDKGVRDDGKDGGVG
TBK1 (human), sequence (Q9UHD2 whole entry, looked up): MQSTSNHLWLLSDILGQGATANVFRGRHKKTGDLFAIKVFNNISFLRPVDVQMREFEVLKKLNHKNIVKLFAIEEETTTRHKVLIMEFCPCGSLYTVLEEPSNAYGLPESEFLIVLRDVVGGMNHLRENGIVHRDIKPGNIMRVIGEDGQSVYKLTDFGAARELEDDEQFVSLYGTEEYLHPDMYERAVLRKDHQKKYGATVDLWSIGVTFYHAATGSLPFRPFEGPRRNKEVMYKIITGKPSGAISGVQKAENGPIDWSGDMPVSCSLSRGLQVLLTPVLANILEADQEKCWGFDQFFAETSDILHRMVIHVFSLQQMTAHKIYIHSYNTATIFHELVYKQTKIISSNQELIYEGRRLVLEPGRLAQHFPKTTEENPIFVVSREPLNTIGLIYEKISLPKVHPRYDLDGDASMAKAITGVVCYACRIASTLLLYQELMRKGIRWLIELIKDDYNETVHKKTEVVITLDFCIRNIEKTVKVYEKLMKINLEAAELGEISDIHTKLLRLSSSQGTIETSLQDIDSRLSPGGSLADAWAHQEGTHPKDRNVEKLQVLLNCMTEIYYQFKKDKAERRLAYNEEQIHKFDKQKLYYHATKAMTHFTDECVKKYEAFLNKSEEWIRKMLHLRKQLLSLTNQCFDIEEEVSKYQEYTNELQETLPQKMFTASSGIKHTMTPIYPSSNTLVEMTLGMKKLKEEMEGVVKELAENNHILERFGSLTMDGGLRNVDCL
RPS6KA3 KD1 KD2 (human), sequence (P51812 whole entry, looked up): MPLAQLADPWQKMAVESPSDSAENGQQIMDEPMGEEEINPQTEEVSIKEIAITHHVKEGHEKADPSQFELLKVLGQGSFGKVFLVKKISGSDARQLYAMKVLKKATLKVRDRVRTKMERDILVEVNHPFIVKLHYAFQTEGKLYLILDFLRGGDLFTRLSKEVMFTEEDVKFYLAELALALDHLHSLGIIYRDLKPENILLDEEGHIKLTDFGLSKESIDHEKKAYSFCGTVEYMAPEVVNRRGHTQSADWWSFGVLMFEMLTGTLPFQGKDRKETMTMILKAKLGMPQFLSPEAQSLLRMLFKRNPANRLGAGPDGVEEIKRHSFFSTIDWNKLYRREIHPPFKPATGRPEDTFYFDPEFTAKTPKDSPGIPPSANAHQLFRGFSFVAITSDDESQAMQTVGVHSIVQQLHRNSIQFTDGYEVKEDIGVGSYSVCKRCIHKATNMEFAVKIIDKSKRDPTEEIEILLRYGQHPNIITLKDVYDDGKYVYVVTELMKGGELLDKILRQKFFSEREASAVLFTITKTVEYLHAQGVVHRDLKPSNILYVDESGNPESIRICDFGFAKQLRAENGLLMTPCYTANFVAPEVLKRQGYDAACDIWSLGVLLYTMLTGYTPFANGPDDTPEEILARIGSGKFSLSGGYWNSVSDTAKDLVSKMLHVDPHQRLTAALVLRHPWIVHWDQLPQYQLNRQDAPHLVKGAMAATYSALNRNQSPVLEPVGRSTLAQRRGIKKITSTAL
EPHB1 (human), sequence (P54762 whole entry, looked up): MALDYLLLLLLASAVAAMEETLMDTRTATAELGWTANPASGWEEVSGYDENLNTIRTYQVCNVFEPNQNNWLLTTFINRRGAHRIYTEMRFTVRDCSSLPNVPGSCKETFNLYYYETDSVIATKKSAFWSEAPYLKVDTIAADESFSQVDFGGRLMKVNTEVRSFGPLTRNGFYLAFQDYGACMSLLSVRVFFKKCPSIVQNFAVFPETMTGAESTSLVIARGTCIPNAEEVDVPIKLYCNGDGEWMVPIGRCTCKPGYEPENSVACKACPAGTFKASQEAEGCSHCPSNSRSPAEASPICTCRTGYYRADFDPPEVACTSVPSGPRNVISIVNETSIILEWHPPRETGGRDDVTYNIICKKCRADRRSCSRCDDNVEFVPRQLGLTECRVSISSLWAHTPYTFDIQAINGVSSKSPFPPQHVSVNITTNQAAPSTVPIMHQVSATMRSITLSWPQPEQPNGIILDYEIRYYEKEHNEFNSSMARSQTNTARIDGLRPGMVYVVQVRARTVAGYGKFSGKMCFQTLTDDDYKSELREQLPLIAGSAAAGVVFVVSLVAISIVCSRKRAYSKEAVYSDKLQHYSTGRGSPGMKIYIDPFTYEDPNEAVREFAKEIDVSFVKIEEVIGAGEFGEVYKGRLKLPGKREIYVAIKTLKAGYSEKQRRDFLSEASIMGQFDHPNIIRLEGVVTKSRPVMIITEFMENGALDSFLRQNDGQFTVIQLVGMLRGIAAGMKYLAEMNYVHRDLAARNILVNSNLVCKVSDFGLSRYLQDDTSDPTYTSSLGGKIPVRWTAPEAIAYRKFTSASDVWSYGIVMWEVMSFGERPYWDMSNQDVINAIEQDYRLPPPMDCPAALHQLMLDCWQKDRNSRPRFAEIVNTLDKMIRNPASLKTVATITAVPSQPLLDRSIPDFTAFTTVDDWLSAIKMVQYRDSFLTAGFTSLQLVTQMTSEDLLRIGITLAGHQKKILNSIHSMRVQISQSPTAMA
ABL2 (human), sequence (P42684 whole entry, looked up): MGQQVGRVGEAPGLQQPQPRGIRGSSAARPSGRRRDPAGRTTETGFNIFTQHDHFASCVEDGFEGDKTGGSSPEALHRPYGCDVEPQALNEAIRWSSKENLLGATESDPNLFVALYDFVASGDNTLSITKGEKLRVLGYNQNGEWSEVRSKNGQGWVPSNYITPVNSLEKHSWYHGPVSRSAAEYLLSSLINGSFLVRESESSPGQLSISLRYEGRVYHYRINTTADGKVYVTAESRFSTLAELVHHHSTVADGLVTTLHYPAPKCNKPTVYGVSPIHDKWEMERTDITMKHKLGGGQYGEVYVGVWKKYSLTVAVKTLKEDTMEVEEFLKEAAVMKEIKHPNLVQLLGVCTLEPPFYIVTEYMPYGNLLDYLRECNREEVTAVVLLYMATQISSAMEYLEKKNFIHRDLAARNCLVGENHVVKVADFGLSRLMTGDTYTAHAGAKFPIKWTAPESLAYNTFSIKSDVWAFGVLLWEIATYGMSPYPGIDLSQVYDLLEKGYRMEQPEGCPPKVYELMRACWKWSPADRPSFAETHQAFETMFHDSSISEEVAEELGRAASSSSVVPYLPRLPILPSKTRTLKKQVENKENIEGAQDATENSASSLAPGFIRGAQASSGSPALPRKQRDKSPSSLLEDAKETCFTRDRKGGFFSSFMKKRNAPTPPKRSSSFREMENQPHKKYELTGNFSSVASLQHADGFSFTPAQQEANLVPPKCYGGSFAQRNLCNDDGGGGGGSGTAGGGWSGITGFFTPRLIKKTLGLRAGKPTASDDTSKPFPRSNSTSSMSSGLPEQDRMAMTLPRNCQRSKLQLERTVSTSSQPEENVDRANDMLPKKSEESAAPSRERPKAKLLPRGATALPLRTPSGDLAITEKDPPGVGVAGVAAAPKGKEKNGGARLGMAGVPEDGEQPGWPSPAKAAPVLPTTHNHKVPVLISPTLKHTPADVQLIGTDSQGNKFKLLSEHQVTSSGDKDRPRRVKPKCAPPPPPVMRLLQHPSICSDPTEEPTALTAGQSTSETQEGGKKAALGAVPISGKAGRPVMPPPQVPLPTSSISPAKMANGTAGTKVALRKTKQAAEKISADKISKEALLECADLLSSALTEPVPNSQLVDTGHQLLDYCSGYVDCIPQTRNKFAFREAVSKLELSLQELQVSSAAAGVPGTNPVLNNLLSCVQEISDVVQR
ULK3 (human), sequence (Q6PHR2 whole entry, looked up): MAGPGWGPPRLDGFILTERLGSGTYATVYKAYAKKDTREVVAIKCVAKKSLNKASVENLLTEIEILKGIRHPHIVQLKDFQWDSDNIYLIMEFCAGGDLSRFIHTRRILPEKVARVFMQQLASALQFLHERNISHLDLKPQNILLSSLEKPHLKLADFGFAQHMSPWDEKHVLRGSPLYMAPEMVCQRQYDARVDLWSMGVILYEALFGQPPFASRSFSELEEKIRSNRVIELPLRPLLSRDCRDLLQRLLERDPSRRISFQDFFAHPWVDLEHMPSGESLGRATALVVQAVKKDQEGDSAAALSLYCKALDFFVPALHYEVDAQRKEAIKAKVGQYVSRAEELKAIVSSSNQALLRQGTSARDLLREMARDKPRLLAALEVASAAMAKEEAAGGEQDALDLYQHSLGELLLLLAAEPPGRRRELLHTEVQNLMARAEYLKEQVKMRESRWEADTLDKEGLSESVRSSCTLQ

IC50 [1]: 1100 nM
IC50 [2]: 369 nM
IC50 [3]: 1560 nM
IC50 [4]: 91 nM
IC50 [5]: 1430 nM
IC50 [6]: 2390 nM
IC50 [7]: 493 nM
IC50 [8]: 507 nM
IC50 [9]: 842 nM
IC50 [10]: 707 nM
IC50 [11]: 316 nM
IC50 [12]: 1220 nM
IC50 [13]: 580 nM
IC50 [14]: 346 nM
IC50 [15]: 1260 nM
IC50 [16]: 746 nM
IC50 [17]: 745 nM
IC50 [18]: 612 nM
IC50 [19]: 299 nM
IC50 [20]: 836 nM
IC50 [21]: 1100 nM
IC50 [22]: 1520 nM
IC50 [23]: 175 nM
IC50 [24]: 2630 nM
IC50 [25]: 431 nM
IC50 [26]: 1060 nM
IC50 [27]: 71 nM
IC50 [28]: 567 nM
IC50 [29]: 1540 nM
IC50 [30]: 1220 nM
IC50 [31]: 1060 nM
IC50 [32]: 156 nM
Structure (SMILES): COc1cc(Nc2c(C#N)cnc3cc(OCCCN4CCN(C)CC4)c(OC)cc23)c(Cl)cc1Cl
